Data on eight compounds can be found in DBAASP.

Holding throughout (assay): ≥ marks a high value that may be exact or a test limit, other limits are often not marked, values filed in µg/mL are converted to µM
Assay [1] concerns Bacillus subtilis ATCC 6633.
The test system of assay [2] is Klebsiella pneumoniae ATCC 10031.
Assay [3] relates to Escherichia coli ATCC 25922.
Assay [4] has as its system Salmonella enterica subsp. enterica serovar Typhimurium ATCC 14028.
Assay [5] deals with Staphylococcus aureus ATCC 6538P.
Assay [6] relates to Staphylococcus epidermidis ATCC 12228.
Assay [7] concerns Shigella dysenteriae ATCC 9752.
The subject of assay [8] is Micrococcus luteus ATCC 10240.
For assay [9], the system named is Pseudomonas aeruginosa ATCC 27853.
For assay [10], the system named is Staphylococcus aureus ATCC 43300.
In assay [11] the test system is Candida albicans ATCC 2002.
For assay [12], the system named is Bacillus subtilis.
Assay [13] relates to Pseudomonas aeruginosa PAO1.
The subject of assay [14] is Staphylococcus aureus ATCC 25923.
The subject of assay [15] is Escherichia coli ML-35p.
Assay [16] deals with Staphylococcus epidermidis.
In assay [17] the test system is Bacillus cereus.
In assay [18] the test system is Escherichia coli.
Assay [19] relates to Pasteurella multocida.
Assay [20] relates to Staphylococcus aureus.
For assay [21], the system named is Leuconostoc lactis.
Assay [22] relates to Streptococcus uberis.
Assay [23] relates to Listeria innocua.
For assay [24], the system named is Micrococcus luteus.
For assay [25], the system named is Candida albicans ATCC 90028.
For assay [26], the system named is Klebsiella pneumoniae ATCC 700603.
In assay [27] the test system is Acinetobacter baumannii ATCC 19606.
Assay [28] relates to Cryptococcus neoformans ATCC 208821.

SMILES strings stand for the structures. In brackets after ≈: the same amount, converted by molar mass.

Regarding `CC(C)C[C@H](NC(=O)[C@H](Cc1c[nH]c2ccccc12)NC(=O)[C@H](CCCCN)NC(=O)[C@H](Cc1ccccc1)NC(=O)[C@H](C)NC(=O)[C@H](Cc1c[nH]c2ccccc12)NC(=O)[C@H](CCCCN)NC(=O)[C@H](C)NC(=O)[C@@H](N)Cc1ccccc1)C(=O)N[C@@H](CCCCN)C(=O)N[C@@H](CCCCN)C(N)=O` [FAKWAFKWLKK], the MIC in assay [1] came out at 4.34 µM (≈ 6.3 µg/mL); in assay [2] it was 4.34 µM (≈ 6.3 µg/mL); in assay [3] it was 8.6 µM (≈ 12.5 µg/mL); in assay [4], 17.2 µM (≈ 25 µg/mL); in [5] it was 4.34 µM (≈ 6.3 µg/mL); in assay [6], 4.34 µM (≈ 6.3 µg/mL). Moreover, the MIC in assay [7] came out at 8.6 µM (≈ 12.5 µg/mL); in [8], 4.34 µM (≈ 6.3 µg/mL); in assay [9], 8.6 µM (≈ 12.5 µg/mL).

Take `CC(C)C[C@H](NC(=O)[C@H](C)NC(=O)CNC(=O)[C@H](Cc1ccccc1)NC(=O)[C@H](CC(C)C)NC(=O)[C@H](CC(C)C)NC(=O)[C@@H]1CCCN1C(=O)[C@H](Cc1ccccc1)NC(=O)[C@@H](N)Cc1ccccc1)C(=O)N[C@@H](CO)C(=O)N[C@@H](CO)C(=O)N[C@@H](Cc1cnc[nH]1)C(=O)N[C@@H](CC(C)C)C(=O)N1CCC[C@H]1C(=O)N[C@@H](CCCCN)C(=O)N[C@@H](CC(C)C)C(=O)N[C@@H](Cc1ccccc1)C(N)=O` [FFPLLFGALSSHLPKLF]: the MIC in [10] is 3.88 µM (≈ 7.5 µg/mL); in assay [11] it was 1.94 µM (≈ 3.75 µg/mL); in [12], 3.88 µM (≈ 7.5 µg/mL); in assay [13], 1.94 µM (≈ 3.75 µg/mL); in assay [14] it was 1.94 µM (≈ 3.75 µg/mL); in assay [15], 7.75 µM (≈ 15 µg/mL). The compound further yielded an MIC in assay [9] of 1.94 µM (≈ 3.75 µg/mL).

For `CC[C@H](C)[C@H](NC(=O)CNC(=O)[C@H](Cc1c[nH]c2ccccc12)NC(=O)[C@H](CS)NC(=O)[C@H](CO)NC(=O)[C@@H](NC(=O)[C@H](CCC(N)=O)NC(=O)[C@H](Cc1ccccc1)NC(=O)[C@@H]1CCCN1C(=O)[C@@H]1CCCN1C(=O)[C@H](CCCN=C(N)N)NC(=O)[C@H](CCCCN)NC(=O)[C@H](Cc1c[nH]c2ccccc12)NC(=O)[C@@H](NC(=O)[C@H](CCCCN)NC(=O)[C@@H](N)Cc1ccccc1)[C@@H](C)O)[C@@H](C)O)C(=O)N[C@H](C(=O)N[C@@H](CCCCN)C(=O)N[C@@H](CCC(=O)O)C(=O)O)[C@@H](C)CC` [FKTWKRPPFQTSCWGIIKE], the MIC is 23.4 µM (≈ 55 µg/mL) in assay [10]; 5.84 µM (≈ 13.8 µg/mL) in assay [11]; no less than 46.8 µM in [12]; 23.4 µM (≈ 55 µg/mL) in assay [13]; 11.7 µM (≈ 27.5 µg/mL) in assay [14]; no less than 46.8 µM in assay [15]. This compound yielded a minimum inhibitory concentration (MIC) in assay [9] of 23.4 µM (≈ 55 µg/mL).

As to `CC[C@H](C)[C@H](NC(=O)[C@@H](NC(=O)[C@H](C)NC(=O)[C@H](Cc1ccccc1)NC(=O)[C@H](CC(C)C)NC(=O)CN)C(C)C)C(=O)N[C@@H](CCCCN)C(=O)N[C@@H](CCCCN)C(=O)N[C@H](C(=O)N[C@@H](C)C(=O)N[C@@H](CO)C(=O)N[C@H](C(=O)N[C@H](C(=O)N[C@@H](CCCCN)C(=O)N[C@@H](CCCCN)C(=O)N[C@@H](CC(C)C)C(N)=O)[C@@H](C)CC)C(C)C)C(C)C` [GLFAVIKKVASVIKKL], the minimal inhibitory concentration (MIC) in assay [16] was 7 µM (≈ 12 µg/mL); in assay [17], 14.6 µM (≈ 25 µg/mL); in [18] it was 58.3 µM (≈ 99.9 µg/mL); in assay [19], no less than 58.3 µM; in assay [20] it was 14.6 µM (≈ 25 µg/mL); in assay [21], 1.75 µM (≈ 3 µg/mL). Also, the results for the MIC in assay [22], in assay [23] and in [24] were 14.6 µM (≈ 25 µg/mL), 3.5 µM (≈ 6 µg/mL) and 14.6 µM (≈ 25 µg/mL), respectively.

As for `NC(N)=NCCC[C@H](NC(=O)[C@H](CCCN=C(N)N)NC(=O)[C@H](CS)NC(=O)[C@H](CCCN=C(N)N)NC(=O)[C@H](Cc1cnc[nH]1)NC(=O)[C@H](CO)NC(=O)[C@H](CCCN=C(N)N)NC(=O)[C@H](CS)NC(=O)[C@H](CS)NC(=O)[C@H](CCCN=C(N)N)NC(=O)[C@H](Cc1cnc[nH]1)NC(=O)[C@H](Cc1cnc[nH]1)NC(=O)[C@@H](N)CO)C(=O)O` [SHHRCCRSHRCRR], the MIC in assay [25] was 18.9 µM (≈ 32 µg/mL); in assay [26] it was greater than 18.9 µM; in [27], greater than 18.9 µM; in assay [10] it was 18.9 µM (≈ 32 µg/mL); in assay [3] it was greater than 18.9 µM; in assay [28], 4.72 µM (≈ 8 µg/mL). Besides, the MIC in assay [9] was greater than 18.9 µM.

Turning to `CC(C)C[C@H](NC(=O)[C@H](CCCN=C(N)N)NC(=O)[C@@H]1CCCN1C(=O)[C@H](CCCN=C(N)N)NC(=O)[C@H](Cc1cnc[nH]1)NC(=O)[C@H](Cc1cnc[nH]1)NC(=O)[C@@H](N)CO)C(=O)N[C@@H](Cc1ccccc1)C(=O)N[C@@H](Cc1cnc[nH]1)C(=O)N[C@@H](CCCN=C(N)N)C(=O)N[C@@H](Cc1cnc[nH]1)C(=O)N[C@@H](CCCN=C(N)N)C(=O)N[C@@H](Cc1cnc[nH]1)C(=O)O` [SHHRPRLFHRHRH], the MIC in [25] was 18 µM (≈ 32 µg/mL); in assay [26], greater than 18 µM; in assay [27], greater than 18 µM; in [10] it was greater than 18 µM; in assay [3] it was greater than 18 µM; in [28] it was 18 µM (≈ 32 µg/mL). Besides, the MIC in assay [9] was greater than 18 µM.

With `CC(C)C[C@H](NC(=O)[C@H](CCCN=C(N)N)NC(=O)[C@@H]1CCCN1C(=O)[C@H](CCCN=C(N)N)NC(=O)[C@H](Cc1cnc[nH]1)NC(=O)[C@H](Cc1cnc[nH]1)NC(=O)[C@@H](N)CO)C(=O)N[C@@H](Cc1ccccc1)C(=O)N[C@@H](Cc1cnc[nH]1)C(=O)N[C@@H](CCCN=C(N)N)C(=O)N[C@@H](CCCN=C(N)N)C(=O)N[C@@H](CCCN=C(N)N)C(=O)N[C@@H](Cc1cnc[nH]1)C(=O)O` [SHHRPRLFHRRRH], the MIC was 17.9 µM (≈ 32 µg/mL) in [25]; greater than 17.9 µM in assay [26]; greater than 17.9 µM in assay [27]; greater than 17.9 µM in [10]; greater than 17.9 µM in assay [3]; 17.9 µM (≈ 32 µg/mL) in assay [28]. This compound returned an MIC in assay [9] greater than 17.9 µM.

For `CC[C@H](C)[C@H](NC(=O)[C@H](C)NC(=O)[C@@H](NC(=O)[C@@H](NC(=O)[C@H](CCCCN)NC(=O)[C@@H](NC(=O)[C@H](CCCCN)NC(=O)[C@H](CC(=O)O)NC(=O)[C@H](CCCN=C(N)N)NC(=O)[C@@H](NC(=O)[C@@H](N)CO)[C@@H](C)CC)[C@@H](C)CC)[C@@H](C)O)[C@@H](C)CC)C(=O)N[C@@H](CC(=O)O)C(=O)N[C@@H](CC(C)C)C(=O)N[C@@H](C)C(=O)N[C@@H](CCCCN)C(=O)N[C@@H](CO)C(=O)N[C@@H](C)C(=O)NCC(=O)N[C@H](C(=O)NCC(=O)N[C@H](C(=O)N[C@@H](CC(C)C)C(=O)N[C@@H](CCCCN)C(=O)N[C@H](C(=O)N[C@@H](CC(C)C)C(=O)N[C@H](C(=O)N[C@H]1CSSC[C@@H](C(=O)O)NC(=O)[C@H](CO)NC(=O)[C@H](CCCCN)NC(=O)[C@H](CC(N)=O)NC(=O)[C@H](CC(C)C)NC(=O)[C@H](CCCCN)NC1=O)[C@@H](C)CC)[C@@H](C)O)C(C)C)[C@@H](C)O` [SIRDKIKTIAIDLAKSAGTGVLKTLICKLNKSC], the MIC in [10] was found to be 3.57 µM (≈ 12.5 µg/mL); in assay [11] it was 5.35 µM (≈ 18.7 µg/mL); in assay [12], 5.35 µM (≈ 18.7 µg/mL); in [14], 4.28 µM (≈ 15 µg/mL); in [15] it was 7.14 µM (≈ 25 µg/mL).
